Data published in patent publication US11242351B2, “Tricyclic inhibitors of the BCL6 BTB domain protein-protein interaction and uses thereof” (priority 2017, dated 2022).
Like-named read-outs stand apart in the source and are kept apart here.

Key:
Karpas422 cells = experiment: Tumor cell growth inhibition assay; assay type: cell-based; conditions: Homo sapiens, KARPAS-422, 144 h, read-out: GI Karpas EC50
Procedure, shortened: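 Karpas422 cells were dosed over a 10-point concentration range (top 5 μM) and grown 6 days at 37 °C, 5% CO2, in Alpha-MEM with 10% FBS. Viability was read as ATPlite luminescence.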

[1] = test system: BCL6 reporter construct in SuDHL4-3×BCL6-TK-Luc cells; experiment: Cell-based luciferase assay (BCL6 reporter); conditions: 48 h, read-out: Luc IC50
Procedure, shortened: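 SuDHL4 cells stably carrying a 3×BCL6-site TK-promoter firefly luciferase reporter, 15,000 cells/well, dosed over 10 concentrations (top 10 μM) and cultured two days at 37° C, 5% CO2. Luciferase luminescence read after room-temperature equilibration with neolite reagent.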

[2] = target: BCL6 BTB domain (biotin-thrombin-BCL6 amino acids 1-129) (Homo sapiens (Human), UniProt P41182); experiment: Surface Plasmon Resonance (SPR) assay; assay type: binding; conditions: Biacore T200, single cycle kinetic analysis
Procedure: Surface Plasmon Resonance (SPR) Assay
SPR studies were performed using a Biacore™ T200 instrument (GE Health Sciences Inc.). […] The Biacore flow rate was set at 100 μl/min. […] Curve fitting and KD calculations were performed with the Biacore T200 Evaluation software (GE Health Sciences Inc).

[3] = Karpas422 cells, six days, ATPlite
[4] = SuDHL4-3×BCL6-TK-Luc cells, two days

Structure (SMILES) | EC50 (Karpas422 cells; [3]) | IC50 [1, 4] | Kd [2] | EC50 (Karpas422 cells) | IC50 [1]
COCCN1CCN(c2cc(NC(=O)Cn3cc(-c4cc(F)c(O)c(C(N)=O)c4)c4c(=O)n5c(nc43)CCC5)c(Cl)c(F)n2)[C@@H](C)C1 [I-77, (S)-5-(1-(2-((3-chloro-2-fluoro-6-(4-(2-methoxyethyl)-2-methylpiperazin-1-yl)pyridin-4-yl)amino)-2-oxoethyl)-4-oxo-4,6,7,8-tetrahydro-1H-dipyrrolo[1,2-a:2′,3′-d]pyrimidin-3-yl)-3-fluoro-2-hydroxy-benzamide] | 20.7 nM | 27.4 nM | 1.42 nM | – | –
C[C@H]1CN(C2COC2)CCN1c1cc(NC(=O)Cn2cc(-c3cc(C(N)=O)c(O)c(F)c3F)c3c(=O)n4c(nc32)CCCC4)c(Cl)c(F)n1 [I-44, (S)-5-(1-(2-((3-chloro-2-fluoro-6-(2-methyl-4-(oxetan-3-yl)piperazin-1-yl)pyridin-4-yl)amino)-2-oxo-ethyl)-4-oxo-1,4,6,7,8,9-hexahydropyrido [1,2-a]pyrrolo[2,3-d]pyrimidin-3-yl)-3,4-difluoro-2-hydroxy-benzamide] | – | – | 25 nM | 310 nM | 104 nM
C[C@H]1CN(C)CCN1c1cc(NC(=O)Cn2cc(-c3cc(Cl)c(O)c(C(N)=O)c3)c3c(=O)n4c(nc32)CC(C)(C)C4)c(Cl)c(F)n1 [I-60, (S)-3-chloro-5-(1-(2-((3-chloro-6-(2,4-dimethylpiperazin-1-yl)-2-fluoropyridin-4-yl)amino)-2-oxoethyl)-7,7-dimethyl-4-oxo-4,6,7,8-tetrahydro-1H-dipyrrolo[1,2-a:2′,3′-d]pyrimidin-3-yl)-2-hydroxybenzamide] | – | – | 13.4 nM | 97.2 nM | 186 nM
C[C@H]1CN(C)CCN1c1cc(NC(=O)Cn2cc(-c3cc(C(N)=O)c(O)c(Cl)c3F)c3c(=O)n4c(nc32)CCC4)c(Cl)cn1 [I-12, (S)-3-chloro-5-(1-(2-((5-chloro-2-(2,4-dimethyl-piperazin-1-yl)pyridin-4-yl)amino)-2-oxoethyl)-4-oxo-4,6,7,8-tetrahydro-1H-dipyrrolo[1,2-a:2′,3′-d]pyrimidin-3-yl)-4-fluoro-2-hydroxy-benzamide] | – | – | 111 nM | 1470 nM | 994 nM
C[C@H]1CNCCN1c1cc(NC(=O)Cn2cc(-c3cc(F)c(O)c(C(N)=O)c3)c3c(=O)n4c(nc32)CCC4)c(Cl)c(F)n1 [I-93, (S)-5-(1-(2-((3-chloro-2-fluoro-6-(2-methyl-piperazin-1-yl)pyridin-4-yl)amino)-2-oxoethyl)-4-oxo-4,6,7,8-tetrahydro-1H-dipyrrolo[1,2-a:2′,3′-d]pyrimidin-3-yl)-3-fluoro-2-hydroxy-benzamide] | 83.9 nM | 140 nM | 1.79 nM | – | –
COc1c(O)c(C(N)=O)cc(-c2cn(CC(=O)Nc3cc(N4CCN(C5COC5)C[C@@H]4C)ncc3Cl)c3nc4n(c(=O)c23)CCC4)c1F [I-19, (S)-5-(1-(2-((5-chloro-2-(2-methyl-4-(oxetan-3-yl)piperazin-1-yl)pyridin-4-yl)amino)-2-oxoethyl)-4-oxo-4,6,7,8-tetrahydro-1H-dipyrrolo[1,2-a:2′,3′-d]pyrimidin-3-yl)-4-fluoro-2-hydroxy-3-methoxybenzamide] | 513 nM | 501 nM | 26.6 nM | – | –
C[C@H]1CNCCN1c1cc(NC(=O)Cn2cc(-c3cc(C(N)=O)c(O)c(F)c3F)c3c(=O)n4c(nc32)CCC4)c(Cl)c(F)n1 [I-53, (S)-5-(1-(2-((3-chloro-2-fluoro-6-(2-methyl-piperazin-1-yl)pyridin-4-yl)amino)-2-oxo-ethyl)-4-oxo-4,6,7,8-tetrahydro-1H-dipyrrolo [1,2-a:2′,3′-d]pyrimidin-3-yl)-3,4-difluoro-2-hydroxybenzamide] | 646 nM | 504 nM | 5.83 nM | – | –
CC1Cc2nc3c(c(-c4cc(C(N)=O)c(O)c(F)c4F)cn3CC(=O)Nc3cc(N4CCN(C)C[C@@H]4C)nc(F)c3Cl)c(=O)n2C1 (stereo partly drawn) [I-63, 5-(1-(2-((3-chloro-6-((S)-2,4-dimethyl-piperazin-1-yl)-2-fluoropyridin-4-yl)amino)-2-oxoethyl)-7-methyl-4-oxo-4,6,7,8-tetrahydro-1H-dipyrrolo[1,2-a:2′,3′-d]pyrimidin-3-yl)-3,4-difluoro-2-hydroxy-benzamide] | 120 nM | 110 nM | 10.2 nM | – | –
C[C@H]1COCCN1c1cc(NC(=O)Cn2cc(-c3cc(C(N)=O)c(O)c(F)c3F)c3c(=O)n4c(nc32)CCCCC4)c(Cl)c(F)n1 [I-51, (S)-5-(1-(2-((3-chloro-2-fluoro-6-(3-methyl-morpholino)pyridin-4-yl)amino)-2-oxoethyl)-4-oxo-4,6,7,8,9,10-hexahydro-1H-pyrrolo [2′,3′:4,5]pyrimido [1,2-a]azepin-3-yl)-3,4-difluoro-2-hydroxy-benzamide] | 974 nM | 3050 nM | 89.1 nM | – | –
NC(=O)c1cc(-c2cn(CC(=O)Nc3cc(N4CCCC4)nc(F)c3Cl)c3nc4n(c(=O)c23)CCC4)c(F)c(F)c1O [I-47, 5-(1-(2-((3-chloro-2-fluoro-6-(pyrrolidin-1-yl)pyridin-4-yl)amino)-2-oxoethyl)-4-oxo-4,6,7,8-tetrahydro-1H-dipyrrolo[1,2-a:2′,3′-d]pyrimidin-3-yl)-3,4-difluoro-2-hydroxy-benzamide] | 212 nM | 166 nM | 23.9 nM | – | –
COCCN1CCN(c2cc(NC(=O)Cn3cc(-c4cc(Cl)c(O)c(C(N)=O)c4)c4c(=O)n5c(nc43)CCC5)c(Cl)c(F)n2)[C@@H](C)C1 [I-75, (S)-3-chloro-5-(1-(2-((3-chloro-2-fluoro-6-(4-(2-methoxyethyl)-2-methylpiperazin-1-yl)pyridin-4-yl)amino)-2-oxoethyl)-4-oxo-4,6,7,8-tetra-hydro-1H-dipyrrolo [1,2-a:2′,3′-d]pyrimi-din-3-yl)-2-hydroxy-benzamide] | 48.9 nM | 36.7 nM | 3.7 nM | – | –
NC(=O)c1cc(-c2cn(CC(=O)Nc3cc(N4CCOCC4)ccc3Cl)c3nc4n(c(=O)c23)CCC4)c(F)c(F)c1O [I-31, 5-(1-(2-((2-chloro-5-morpholinophenyl)amino)-2-oxoethyl)-4-oxo-4,6,7,8-tetrahydro-1H-dipyrrolo[1,2-a:2′,3′-d]pyrimidin-3-yl)-3,4-difluoro-2-hydroxy-benzamide] | – | – | 141 nM | 2690 nM | 6300 nM
CC1Cc2nc3c(c(-c4cc(C(N)=O)c(O)c5c4OCO5)cn3CC(=O)Nc3cc(N4CCOC[C@@H]4C)ncc3Cl)c(=O)n2C1 (stereo partly drawn) [I-88, 7-(1-(2-((5-chloro-2-((S)-3-methylmorpho-lino)pyridin-4-yl)amino)-2-oxoethyl)-7-methyl-4-oxo-4,6,7,8-tetrahydro-1H-dipyrrolo[1,2-a:2′,3′-d]pyrimidin-3-yl)-4-hydroxybenzo[d][1,3] dioxole-5-carboxamide] | 17.6 nM | 39.4 nM | 2.14 nM | – | –
C[C@H]1COCCN1c1cc(NC(=O)Cn2cc(-c3cc(Cl)c(O)c(C(N)=O)c3)c3c(=O)n4c(nc32)CC(C)(C)C4)c(Cl)c(F)n1 [I-59, (S)-3-chloro-5-(1-(2-((3-chloro-2-fluoro-6-(3-methylmorpho-lino)pyridin-4-yl)amino)-2-oxoethyl)-7,7-dimethyl-4-oxo-4,6,7,8-tetrahydro-1H-dipyrrolo[1,2-a:2′,3′-d]pyrimidin-3-yl)-2-hydroxybenzamide] | 48.8 nM | 190 nM | 23.4 nM | – | –
C[C@H]1COCCN1c1cc(NC(=O)Cn2cc(-c3cc(C(N)=O)c(O)c(Cl)c3F)c3c(=O)n4c(nc32)CCC4)c(Cl)cn1 [I-13, (S)-3-chloro-5-(1-(2-((5-chloro-2-(3-methyl-morpholino)pyridin-4-yl)amino)-2-oxoethyl)-4-oxo-4,6,7,8-tetra-hydro-1H-dipyrrolo [1,2-a:2′,3′-d]pyrimidin-3-yl)-4-fluoro-2-hydroxybenzamide] | 1870 nM | 1320 nM | 111 nM | – | –
CCN1CCN(c2cc(NC(=O)Cn3cc(-c4cc(C(N)=O)c(O)c(F)c4F)c4c(=O)n5c(nc43)CCC5)c(Cl)c(F)n2)[C@@H](C)C1 [I-23, (S)-5-(1-(2-((3-chloro-6-(4-ethyl-2-methyl-piperazin-1-yl)-2-fluoro-pyridin-4-yl)amino)-2-oxoethyl)-4-oxo-4,6,7,8-tetrahydro-1H-dipyrrolo [1,2-a:2′,3′-d]pyrimidin-3-yl)-3,4-difluoro-2-hydroxybenzamide] | 102 nM | 91.5 nM | 7.97 nM | – | –
CCN1CCN(c2cc(NC(=O)Cn3cc(-c4cc(C(N)=O)c(O)c5c4OCO5)c4c(=O)n5c(nc43)CCC5)c(Cl)c(F)n2)[C@@H](C)C1 [I-86, (S)-7-(1-(2-((3-chloro-6-(4-ethyl-2-methyl-piperazin-1-yl)-2-fluoropyridin-4-yl)amino)-2-oxoethyl)-4-oxo-4,6,7,8-tetrahydro-1H-dipyrrolo[1,2-a:2′,3′-d]pyrimidin-3-yl)-4-hydroxybenzo[d][1,3] dioxole-5-carboxamide] | – | – | 0.81 nM | 6.88 nM | 7.85 nM
C[C@@H]1CN(C)C[C@H](C)N1c1cc(NC(=O)Cn2cc(-c3cc(C(N)=O)c(O)c(F)c3F)c3c(=O)n4c(nc32)CCC4)c(Cl)c(F)n1 [I-97, 5-(1-(2-((3-chloro-2-fluoro-6-((2R,6S)-2,4,6-trimethylpiperazin-1-yl)pyridin-4-yl)amino)-2-oxoethyl)-4-oxo-4,6,7,8-tetrahydro-1H-dipyrrolo[1,2-a:2′,3′-d]pyrimidin-3-yl)-3,4-difluoro-2-hydroxy-benzamide] | – | – | 11.9 nM | 70.9 nM | 63.5 nM
